From patent US20070010669A1, “Novel class of cytodifferentiating agents and histone deacetylase inhibitors, and methods of use thereof” (priority 1999, published 2007)
Read-outs that look alike come from different tables or passages of the source.

Tests used:
[1] = test system: Murine erythroleukemia (MEL) cells; assay: MEL cell differentiation assay (benzidine assay; cell growth by Coulter Counter); format: cell-based; conditions: for MEL Diff % B+ / MEL Diff Cells/ml × 10^−5: Table 2; for MEL Diff Cells/ml × 10^−5: cell growth; for concentration able to induce MEL cell differentiation: FIGS. 1, 3, 4, 6; for concentration able to induce MEL cell differentiation / MEL Differentiation Opt.: 5-day culture; for MEL Differentiation % B+ / MEL Differentiation Opt.: Table 1; for MEL Differentiation % B+: benzidine-positive cells at Opt. concentration; for MEL Differentiation Opt.: optimal concentration
Protocol: (§1) The MEL cell differentiation assay was used to assess the ability of Compound 1 to induce terminal differentiation. MEL cells (logarithmically dividing) were cultured with the indicated concentrations of Compound 1. Following a 5-day culture period, cell growth was determined using a Coulter Counter and differentiation was determined microscopically using the benzidine assay to determine hemoglobin protein accumulation on a per cell basis.
as §1, with “2” for “1”, “2.” for “1.”, “period” for “period, cell growth was determined using a Coulter Counter and”
as §1, with “3” for “1”, “3.” for “1.”, “period” for “period, cell growth was determined using a Coulter Counter and”, “microsdopically” for “microscopically”
as §1, with “4” for “1”, “4.” for “1.”, “period” for “period, cell growth was determined using a Coulter Counter and”
All the compounds which were prepared were tested. […] Table 2 is compiled from experiments similar to the experiments described in Examples 7-10 above.

[2] = target: affinity purified human epitope-tagged (Flag) HDAC1 (Homo sapiens, UniProt Q13547); assay: Histone Deacetylase (HDAC) enzymatic activity, [3H]acetyl-labeled histone substrate; format: biochemical; design: Flag
Protocol: (§2) Substrate ([^3H]acetyl-labeled murine erythroleukemia cell-derived histone) was added and the samples were incubated for 20 min at 37° C. in a total volume of 30 μl. The reaction were then stopped and released acetate was extracted and the amount of radioactivity released determined by scintillation counting.
as §2, with “Substrate ([^3H]acetyl-labelled” for “Substrate ([^3H]acetyl-labeled”, “The reactions” for “The reaction”, “and relaesed” for “and released”
as §2, with “([^3H]acetyl-labelled” for “([^3H]acetyl-labeled”, “reactions” for “reaction”
The effect was assayed by incubating the enzyme preparation in the absence of substrate on ice for 20 minutes with the indicated amounts of compound. Substrate([^3H]acetyl-labeled murine erythroleukemia cell-derived histones) was added and the samples were incubated for 20 minutes at 37° C. in a total volume of 30 μl. The reactions were then stopped and released acetate was extracted and the amount of radioactivity released determined by scintillation counting.

[3] = Table 2, unit nM, read-out: HDAC inh ID50
[4] = Table 2, unit μM, read-out: HDAC inh ID50
[5] = FIGS. 2, 5, 7, read-out: ID50 of HDAC1 enzymatic activity
[6] = Table 2, unit column μm, read-out: HDAC inh ID50

affinity purified human epitope-tagged (Flag) HDAC1, sequence (Q13547 whole entry): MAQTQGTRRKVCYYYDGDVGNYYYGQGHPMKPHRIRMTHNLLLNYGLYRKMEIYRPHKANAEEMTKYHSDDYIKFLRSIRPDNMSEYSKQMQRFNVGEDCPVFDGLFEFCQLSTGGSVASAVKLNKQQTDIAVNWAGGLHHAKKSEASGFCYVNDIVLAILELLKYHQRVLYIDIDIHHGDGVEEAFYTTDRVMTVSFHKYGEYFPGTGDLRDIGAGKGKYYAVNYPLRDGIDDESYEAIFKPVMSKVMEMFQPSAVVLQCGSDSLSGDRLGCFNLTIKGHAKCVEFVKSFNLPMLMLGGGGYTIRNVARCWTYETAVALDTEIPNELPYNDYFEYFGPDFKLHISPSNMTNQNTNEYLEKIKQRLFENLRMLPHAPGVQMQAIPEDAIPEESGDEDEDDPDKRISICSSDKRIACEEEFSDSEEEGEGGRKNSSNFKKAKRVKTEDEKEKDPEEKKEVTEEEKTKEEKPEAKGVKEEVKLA

SMILES | MEL Diff % B+ [1] | MEL Diff Cells/ml × 10^−5 [1] | IC50 [2, 3] | further results
O=C(CCCCCC(C(=O)Nc1cnc2ccccc2c1)C(=O)Nc1cnc2ccccc2c1)NO [Compound 677] | 23% | 4.5 Cells/ml × 10^−5 | 5 nM | 
CN(C)c1cccc2cc(S(=O)(=O)NCCCCCC(=O)NO)ccc12 [Compound 671] | 35% | 12.5 Cells/ml × 10^−5 | 200 nM | 
CC(=O)SCCCCCCCC(=O)Nc1ccccc1 [Compound 680] |  |  |  | IC50 [2, 4]: > 100000 nM
O=C(/C=C/c1cccc(C(C(=O)Nc2ccccc2)C(=O)Nc2ccccc2)c1)NO [Compound 77, 3-(malonyldi(phenylamide)) cinnamyl hydroxamic acid] | 9% | 9.0 Cells/ml × 10^−5 |  | 
O=C(CCCCCC(C(=O)Nc1ccccc1)C(=O)Nc1ccccc1)NO [Compound 666] | 31% | 28 Cells/ml × 10^−5 | 100 nM | 
O=C(CCCCC[C@H](NC(=O)c1cnc2ccccc2c1)C(=O)Nc1ccccc1)NO [Compound 664] | 33% | 22 Cells/ml × 10^−5 | 50 nM | 
O=C(CCCCCC(C(=O)Nc1cccc2cccnc12)C(=O)Nc1cccc2cccnc12)NO [Compound 667] | 27% | 2 Cells/ml × 10^−5 | 50 nM | 
O=C(CCCCCCC(=O)Nc1cc[nH]n1)Nc1ccccc1 [Compound 688] | 0% | No inh |  | IC50 [2, 4]: > 100000 nM
O=C(CCCCCCC(=O)C(F)(F)F)Nc1ccccc1 [Compound 670] |  | 13.0 Cells/ml × 10^−5 |  | 
O=C(/C=C/c1cccc(CC(=O)Nc2ccccc2)c1)NO [Compound 689] | 48% |  | 200 nM | 
CC(=O)SCCCCCC(=O)Nc1ccccc1 [Compound 675] | 0% | No inh |  | IC50 [2, 4]: > 100000 nM
O=C(CCCCCC(C(=O)Nc1cccc2ncccc12)C(=O)Nc1cccc2ncccc12)NO [Compound 691] | 0% | No inh | 100 nM | 
NS(=O)(=O)CCCCCCC(=O)Nc1ccccc1 [Compound 686] | 0% | No inh |  | 
O=C(CCCCC[C@H](NC(=O)c1ccccc1)C(=O)Nc1ccccc1)NO [Compound 1, N-Benzoyl-(L)-α-aminosuberoylanilide-ω-hydroxamic acid] | 44% | 9 Cells/ml × 10^−5 |  | concentration able to induce MEL cell differentiation [1]: 200 nM; MEL Differentiation % B+ [1]: 44%; MEL Differentiation Opt. [1]: 200 nM; IC50 [2, 5]: 1 nM
O=C(/C=C/c1cccc(C(=O)Nc2ccccc2)c1)NO [Compound 687] | 0% | No inh |  | IC50 [2, 4]: 200000 nM
O=C(CCCCCC(C(=O)Nc1ccccc1)(C(=O)Nc1ccccc1)c1ccccc1)NO [Compound 682] | 8% | 1.1 Cells/ml × 10^−5 | 150 nM | 
O=C(CCCCCC(C(=O)Nc1cccc2cccnc12)(C(=O)Nc1cccc2cccnc12)c1ccccc1)NO [Compound 681] | 3% | 2.5 Cells/ml × 10^−5 | 200 nM | 
NS(=O)(=O)CCCCCC(=O)Nc1ccccc1 [Compound 678] | 0% | No inh |  | IC50 [2, 4]: > 100000 nM
OC(c1ncc[nH]1)(c1ncc[nH]1)c1nc(CCCCCc2cnc(C(O)(c3ncc[nH]3)c3ncc[nH]3)[nH]2)c[nH]1 [Compound 674] | 0% | Dead at 25 μM |  | IC50 [2, 4]: 50000 nM

SMILES | MEL Diff % B+ [1] | MEL Diff Cells/ml × 10^−5 [1] | IC50 [2, 3] | further results
O=C(O)CCCCC[C@@H](NC(=O)c1ccccc1)C(=O)Nc1ccccc1 [Compound 656] | 0% |  |  | IC50 [2, 6]: > 100000 nM
O=C(CCCCC[C@H](NC(=O)c1cccs1)C(=O)Nc1ccccc1)NO [Compound 665] | 24% | 30 Cells/ml × 10^−5 | 50 nM | 
O=C(Nc1ccccc1)C(CCCCCC(=O)C(F)(F)F)C(=O)Nc1ccccc1 [Compound 669] | 11% | 16.0 Cells/ml × 10^−5 |  | IC50 [2, 4]: 10000 nM
O=C(CCCCC[C@H](NC(=O)c1cccnc1)C(=O)Nc1ccccc1)NO [Compound 2, N-Nicotinoyl-(L)-α-aminosuberoylanilide-ω-hydroxamic acid] |  |  |  | concentration able to induce MEL cell differentiation [1]: 800 nM; MEL Differentiation % B+ [1]: 27%; MEL Differentiation Opt. [1]: 800 nM
O=C(/C=C/c1cccc(C(C(=O)Nc2cccc3cccnc23)C(=O)Nc2cccc3cccnc23)c1)NO [Compound 690] | 38% |  | 150 nM | 
O=C(CCCCCn1ccnc1)Nc1ccccc1 [Compound 679] | 0% | No inh |  | IC50 [2, 4]: > 100000 nM
O=C(CCCCCC(CCCCCC(=O)NO)(C(=O)Nc1cccc2cccnc12)C(=O)Nc1cccc2cccnc12)NO [Compound 685] | 20% | 1.0 Cells/ml × 10^−5 | 150 nM | 
O=C(O)CCCCC[C@@H](NC(=O)c1cccnc1)C(=O)Nc1ccccc1 [Compound 657] | 0% |  |  | IC50 [2, 6]: > 100000 nM
O=C(CCCCC[C@@H](NC(=O)c1ccccc1)NC(=O)C1CCCCC1)NO [Compound 663] | 43% | 7 Cells/ml × 10^−5 | 100 nM | 
O=C(O)CCCCCC(NC(=O)OCc1ccccc1)C(=O)Nc1cccc2cccnc12 (stereo not drawn) [Compound 659] | 0% |  |  | IC50 [2, 4]: 10000 nM
O=C(CCCCC[C@@H](NC(=O)c1ccccc1)C(=O)Nc1cccc2cccnc12)NO [Compound 661] | 7% |  | 20 nM | 
O=C(CCCCC[C@H](NC(=O)c1cccnc1)C(=O)Nc1ccccc1)NO (stereo in doubt) [Compound 2, N-Nicotinoyl-(L)-α-aminosuberoylanilide-ω-hydroxamic acid] | 27% |  | 50 nM | 
CS(=O)(=O)NCCCCCC(=O)Nc1ccccc1 [Compound 662] | 0% |  |  | IC50 [2, 4]: > 100000 nM
O=C(CCCCC[C@H](NC(=O)OCc1ccccc1)C(=O)Nc1ccccc1)NO [Compound 3, N-benzyloxycarbonyl-(L)-α-aminosuberateanilide-ω-hydroxamic acid] |  |  |  | concentration able to induce MEL cell differentiation [1]: 400 nM; MEL Differentiation % B+ [1]: 16%; MEL Differentiation Opt. [1]: 400 nM; IC50 [2, 5]: 100 nM
O=C(CCCCCCC(=O)Nc1nccs1)Nc1ccccc1 [Compound 693] | 0% | No inh |  | IC50 [2, 4]: > 100000 nM
O=C(CCCCCCn1ccnc1)Nc1ccccc1 [Compound 684] | 0% | No inh |  | 
O=C(CCCCCBr)Nc1ccccc1 [Compound 676] | 0% | No inh |  | 
COP(=O)(NCCCCCC(=O)Nc1ccccc1)OC [Compound 673] | 0% | No inh |  | 
O=C(CCCCCC(C(=O)Nc1ccc2ncccc2c1)C(=O)Nc1ccc2ncccc2c1)NO [Compound 692] | 27% |  |  | 
